Patent publication US20060247227A1, “Substituted piperidines as histamine h3 receptor ligands” (priority 2003, published 2006)
Structures can show the parent of a compound that is named as a salt.

What was measured:
[1] = target: T1, histamine H3 receptor (Homo sapiens, UniProt Q9Y5N1); assay: Histamine H3 functional antagonist assay ([35S]GTPγS, SPA, membranes of CHO K1 cells expressing the receptor); assay type: biochemical; conditions: histamine-stimulated GTPγS binding, membranes with human H3
T1 construct: expressed in transfected cells; host or cells: CHO K1 cells carrying pSwitch, transfected with pGeneH3 and induced with mifepristone; clone 3H3; membranes
T1 sequence (Q9Y5N1 whole entry): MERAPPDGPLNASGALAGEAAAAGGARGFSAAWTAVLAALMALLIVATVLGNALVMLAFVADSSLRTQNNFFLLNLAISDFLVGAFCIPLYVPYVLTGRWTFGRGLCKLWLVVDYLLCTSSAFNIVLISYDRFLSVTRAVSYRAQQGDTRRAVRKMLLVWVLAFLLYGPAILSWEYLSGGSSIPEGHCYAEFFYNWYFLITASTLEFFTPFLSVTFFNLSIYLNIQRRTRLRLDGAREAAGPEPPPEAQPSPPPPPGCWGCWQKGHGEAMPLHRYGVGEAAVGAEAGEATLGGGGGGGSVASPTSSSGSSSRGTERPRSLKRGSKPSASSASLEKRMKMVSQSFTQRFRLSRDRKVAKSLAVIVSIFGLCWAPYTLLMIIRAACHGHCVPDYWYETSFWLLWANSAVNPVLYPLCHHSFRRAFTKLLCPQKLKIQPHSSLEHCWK
Excerpt: A membrane preparation containing histamine H3 receptors may be prepared in accordance with the following procedures:
(i) Generation of Histamine H3 Cell Line
DNA encoding the human histamine H3 gene (Huvar, A. et al. (1999) Mol. Pharmacol. 55(6), 1101-1107) was cloned into a holding vector, pCDNA3.1 TOPO (InVitrogen) and its cDNA was isolated from this vector by restriction digestion of plasmid DNA with the enzymes BamH1 and Not-1 and ligated into the inducible expression vector pGene (InVitrogen) digested with the same enzymes. The GeneSwitch™ system (a system where in transgene expression is switched off in the absence of an inducer and switched on in the presence of an inducer) was performed as described in U.S. Pat. Nos. 5,364,791; 5,874,534; and 5,935,934. Ligated DNA was transformed into competent DH5α E. coli host bacterial cells and plated onto Luria Broth (LB) agar containing Zeocin™ (an antibiotic which allows the selection of cells expressing the sh ble gene which is present on pGene and pSwitch) at 50 μg ml^−1. Colonies containing the re-ligated plasmid were identified by restriction analysis. DNA for transfection into mammalian cells was prepared from 250 ml cultures of the host bacterium containing the pGeneH3 plasmid and isolated using a DNA preparation kit (Qiagen Midi-Prep) as per manufacturers guidelines (Qiagen).
CHO K1 cells previously transfected with the pSwitch regulatory plasmid (InVitrogen) were seeded at 2×10e6cells per T75 flask in Complete Medium, containing Hams F12 (GIBCOBRL, Life Technologies) medium supplemented with 10% v/v dialysed foetal bovine serum, L-glutamine, and hygromycin ([…]), 24 hours prior to use. Plasmid DNA was transfected into the cells using Lipofectamine plus according to the manufacturers guidelines (InVitrogen). 48 hours post transfection cells were placed into complete medium supplemented with […] Zeocin™.
10-14 days post selection 10 nM Mifepristone (InVitrogen), was added to the culture medium to induce the expression of the receptor. 18 hours post induction cells were detached from the flask using ethylenediamine tetra-acetic acid (EDTA; 1:5000; InVitrogen), following several washes with phosphate buffered saline pH 7.4and resuspended in Sorting Medium containing Minimum Essential Medium (MEM), without phenol red, and supplemented with Earles salts and 3% Foetal Clone II (Hyclone). Approximately 1×10e7 cells were examined for receptor expression by staining with a rabbit polyclonal antibody, 4a, raised against the N-terminal domain of the histamine H3 receptor, incubated on ice for 60 minutes, followed by two washes in sorting medium. Receptor bound antibody was detected by incubation of the cells for 60 minutes on ice with a goat anti rabbit antibody, conjugated with Alexa 488 fluorescence marker (Molecular Probes). Following two further washes with Sorting Medium, cells were filtered through a 50 μm Filcon™ (BD Biosciences) and then analysed on a FACS Vantage SE Flow Cytometer fitted with an Automatic Cell Deposition Unit. Control cells were non-induced cells treated in a similar manner. Positively stained cells were sorted as single cells into 96-well plates, containing Complete Medium containing 500 μg ml^−1 Zeocin™ and allowed to expand before reanalysis for receptor expression via antibody and ligand binding studies. One clone, 3H3, was selected for membrane preparation.
(ii) Membrane Preparation from Cultured Cells
All steps of the protocol are carried out at 4° C. and with pre-cooled reagents. The cell pellet is resuspended in 10 volumes of buffer A2 containing 50 mM N-2-hydroxyethylpiperazine-N′-2-ethanesulfonic acid (HEPES) (pH 7.40) supplemented with […] leupeptin (acetyl-leucyl-leucyl-arginal; Sigma L2884), 25 μg/ml bacitracin (Sigma B0125), 1 mM ethylenediamine tetra-acetic acid (EDTA), 1 mM phenylmethylsulfonyl fluoride (PMSF) and 2×10e-6M pepstain A (Sigma). […]

Row | Structure (SMILES) | melting point [°C] | Ki [1] [nM]
1 | O=C(NC1CCC1)c1ccc(N2CCC(OC3CCN(C4CCC4)CC3)CC2)cn1 [Example E104, N-Cyclobutyl-5-{4-[(1-cyclobutyl-4-piperidinyl)oxy]-1-piperidinyl}-2-pyridinecarboxamide] | – | ≤ 1
2 | CC(C)N1CCC(OC2CCN(c3ccc(C(=O)NC4CCC4)nc3)CC2)CC1 [Example E105, N-Cyclobutyl-5-(4-{[1-(1-methylethyl)-4-piperidinyl]oxy}-1-piperidinyl)-2-pyridinecarboxamide] | – | ≤ 1
3 | CC(C)N1CCC(OC2CCN(c3ccc(C(=O)NCCCCl)cc3)CC2)CC1 [Example E106, N-(3-Chloropropyl)-4-(4-{[1-(1-methylethyl)-4-piperidinyl]oxy}-1-piperidinyl)benzamide hydrochloride] | – | ≤ 1
4 | CC(C)N1CCC(OC2CCN(c3ccc(C(=O)NCCCCl)nc3)CC2)CC1 [Example E108, N (3-Chloropropyl)-5-(4-{[1-(1-methylethyl)-4-piperidinyl]oxy}-1-piperidinyl)-2-pyridinecarboxamide hydrochloride] | – | ≤ 1
5 | CC(=O)c1ccc(N2CCC(OC3CCN(C4CCC4)CC3)CC2)cn1 [Example E111, 1-(5-{4-[(1-Cyclobutyl-4-piperidinyl)oxy]-1-piperidinyl}-2-pyridinyl)ethanone] | – | ≤ 1

Further lines, results first:

Row | melting point [°C] | Ki [1] [nM] | Structure (SMILES)
6 | 109.7 | – | CNC(=O)c1ccc(N2CCC(OC3CCN(C4CCC4)CC3)CC2)cn1 [Example E38A, 5-{4-[(1-Cyclobutyl-4-piperidinyl)oxy]-1-piperidinyl}-N-methyl-2-pyridinecarboxamide]
7 | – | ≤ 1 | O=C(NCCCCl)c1ccc(N2CCC(OC3CCN(C4CCC4)CC3)CC2)cn1 [Example E107, N-(3-Chloropropyl)-5-{4-[(1-cyclobutyl-4-piperidinyl)oxy]-1-piperidinyl}-2-pyridinecarboxamide hydrochloride]
8 | – | ≤ 1 | CC(=O)c1ccc(N2CCC(OC3CCN(C4CCC4)CC3)CC2)c(F)c1 [Example E109, 1-(4-{4-[(1-Cyclobutyl-4-piperidinyl)oxy]-1-piperidinyl}-3-fluorophenyl)ethanone]
9 | – | ≤ 1 | Cc1noc(-c2ccc(N3CCC(OC4CCN(C5CCC5)CC4)CC3)cc2F)n1 [Example E110, 1-Cyclobutyl-4-({1-[3-fluoro-4-(3-methyl-1,2,4-oxadiazol-5-yl)phenyl]-4-piperidinyl}oxy)piperidine]
10 | – | ≤ 1 | Cc1noc(-c2ccc(N3CCC(OC4CCN(C(C)C)CC4)CC3)c(F)c2)n1 [Example E112, 1-[2-Fluoro-4-(3-methyl-1,2,4-oxadiazol-5-yl)phenyl]-4-{[1-(1-methylethyl)-4-piperidinyl]oxy}piperidine hydrochloride]
11 | – | ≤ 1 | Cc1noc(-c2ccc(N3CCC(OC4CCN(C(C)C)CC4)CC3)cc2F)n1 [Example E113, 1-[3-Fluoro-4-(3-methyl-1,2,4-oxadiazol-5-yl)phenyl]-4-{[1-(1-methylethyl)-4-piperidinyl]oxy}piperidine hydrochloride]
